Results reported in article PMC13261364 (International journal of biological macromolecules, 2025).
Like-named read-outs stand apart in the source and are kept apart here.

Assays:
[1] = target: PaCAγ1 (Pseudomonas aeruginosa, UniProt Q9HT34); test: biochemical; details: Stopped-Flow assay, mean from 3 different assays
[2] = system: PaCAγ1; test: biochemical; details: Selectivity Index, ratio of KI
[3] = target: hCA I (Homo sapiens, UniProt P00915); test: Stopped-flow CO2 hydration inhibition assay, hCA I; assay type: biochemical
[4] = target: hCA II (Homo sapiens, UniProt P00918); test: Stopped-flow CO2 hydration inhibition assay, hCA II; assay type: biochemical; details: mean from 3 different assays, errors ±5–10 %
[5] = target: psCA1; details: read-out: KI psCA1; 20 °C, 10 mM Tris buffer, 20 mM NaClO4 pH 8.3; ref [52]; cited from earlier work
[6] = system: Neisseria gonorrhoeae; design: method as in PMID 33765392, PMID 34894972; details: treatment with CA inhibitor; no apparent development of resistance; ref [35],[36]; cited from earlier work
[7] = system: Helicobacter pylori; details: without triggering resistance; ref [37]; cited from earlier work
[8] = target: the molecule itself; test: SEC-MALS; SEC-MALS-QELS; 700 μg of purified protein loaded on the SEC s75 column, 20 mM TRIS, 150 mM NaCl, pH 8.5, flow rate 0.5 mL/min
[9] = Stopped-Flow assay, mean from 3 different assays, errors ±5–10 %, read-out: KI hCA I

Chain of hCA I (P00915 whole entry): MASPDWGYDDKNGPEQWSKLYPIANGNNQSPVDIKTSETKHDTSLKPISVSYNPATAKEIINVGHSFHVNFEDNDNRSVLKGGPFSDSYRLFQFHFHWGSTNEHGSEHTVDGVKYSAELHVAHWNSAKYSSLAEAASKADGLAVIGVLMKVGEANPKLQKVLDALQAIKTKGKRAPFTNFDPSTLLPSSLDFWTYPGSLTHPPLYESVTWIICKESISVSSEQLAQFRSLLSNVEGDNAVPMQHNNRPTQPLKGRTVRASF

Molecule: NS(=O)(=O)c1ccc(S(=O)(=O)Nc2cccc3c(Cl)c[nH]c23)cc1 [IND]
- Ki [1]: 453 ± 20.1 nM

Molecule: CC1(C)O[C@@H]2[C@@H](CO[C@@]3(COS(N)(=O)=O)OC(C)(C)O[C@@H]23)O1 [TPM]
- Ki [1]: > 100000 nM

Molecule: NCc1ccc(S(N)(=O)=O)cc1 [Compound 3]
- Ki [1]: 132 ± 8.86 nM

Molecule: Nc1cccc(S(N)(=O)=O)c1 [Compound 1]
- Ki [1]: 189 ± 7.11 nM

Molecule: Cc1onc(-c2ccccc2)c1-c1ccc(S(N)(=O)=O)cc1 [VLX]
- Ki [1]: > 100000 nM

Molecule: Nc1nnc(S(N)(=O)=O)s1 [Compound 13]
- Ki [1]: 72.6 ± 3.43 nM

Molecule: Nc1ccc(S(N)(=O)=O)cc1F [Compound 7]
- Ki [1]: 325 ± 13.8 nM

Molecule: NS(=O)(=O)c1cc2c(cc1Cl)NCNS2(=O)=O [HTC]
- SI hCA I/PaCAγ1 [2]: 0.05
- SI hCA II/PaCAγ1 [2]: 0.04
- Ki [1]: 6600 nM

Molecule: Cc1ccc(S(N)(=O)=O)cc1 [Compound 6]
- Ki [1]: 266 ± 14.2 nM
- Ki [3]: 21000 nM

Molecule: NC(N)=Nc1nc(CSCC/C(N)=N/S(N)(=O)=O)cs1 [FAM]
- SI hCA I/PaCAγ1 [2]: 0.3
- SI hCA II/PaCAγ1 [2]: 0.02
- Ki [1]: 2690 nM
- Ki [3, 9]: 922 nM
- Ki [4]: 58 nM

Molecule: Nc1ccc(S(=O)(=O)NCCc2ccc(S(N)(=O)=O)cc2)cc1 [Compound 24]
- Ki [1]: 584 ± 22.2 nM

Molecule: CC(=O)/N=c1/sc(S(N)(=O)=O)nn1C [MZA]
- Ki [1]: 68.4 ± 2.93 nM

Molecule: NS(=O)(=O)c1ccc(O)cc1 [Compound 15]
- Ki [1]: 209 ± 9.19 nM

Molecule: NS(=O)(=O)c1cc(Cl)cc(Cl)c1O [Compound 10]
- Ki [1]: 9670 nM

Molecule: Nc1ccc(S(N)(=O)=O)cc1 [Compound 2]
- Ki [1]: 155 ± 5.23 nM

Molecule: Cn1nc(S(N)(=O)=O)sc1=N [Compound 14]
- Ki [1]: 97.1 ± 5.32 nM

Molecule: NS(=O)(=O)Cc1noc2ccccc12 [ZNS]
- Ki [1]: 4170 nM

Molecule: Nc1cc(C(F)(F)F)c(S(N)(=O)=O)cc1S(N)(=O)=O [Compound 11]
- Ki [1]: 3670 nM

Molecule: Nc1cccc(S(N)(=O)=O)c1 [ABS, 3-amino-benzene suldonamide]
- Ki [5]: 19 nM

Molecule: NS(=O)(=O)c1ccc(C(=O)O)cc1 [Compound 18]
- Ki [1]: 793 ± 46.2 nM

Molecule: NS(=O)(=O)c1nnc(NS(=O)(=O)c2ccccc2)s1 [BZA]
- Ki [1]: 290 ± 14.4 nM

Molecule: CC(=O)Nc1nnc(S(N)(=O)=O)s1 [AAZ, acetazolamide]
- effect on N. gonorrhoeae [6]: long-lasting bacteriostatic effects

Molecule: NS(=O)(=O)c1cccc(S(N)(=O)=O)c1 [Compound 5]
- Ki [1]: 561 ± 32.4 nM
- Ki [3, 9]: 25000 nM

Molecule: NS(=O)(=O)c1ccc(CO)cc1 [Compound 16]
- Ki [1]: 533 ± 25.8 nM

Molecule: NS(=O)(=O)c1ccc(N2CCCCS2(=O)=O)cc1 [SLT]
- Ki [1]: 356 ± 23.8 nM

Molecule: Nc1ccc(S(=O)(=O)Nc2nnc(S(N)(=O)=O)s2)cc1 [Compound 20]
- Ki [1]: 244 ± 16.2 nM

Molecule: O=C1NS(=O)(=O)c2ccccc21 [SAC]
- Ki [1]: 13800 nM

Molecule: CCOc1ccc2nc(S(N)(=O)=O)sc2c1 [EZA, ethoxzolamide]
- effect on N. gonorrhoeae [6]: long-lasting bacteriostatic effects
- effect on H. pylori growth [7]: inhibited bacterial growth

Molecule: Nc1ccc(S(=O)(=O)NCc2ccc(S(N)(=O)=O)cc2)cc1 [Compound 23]
- Ki [1]: 828 ± 51.7 nM

Molecule: NS(=O)(=O)c1ccc(CCNS(=O)(=O)c2ccc([N+](=O)[O-])cc2CO)cc1 [Compound 21]
- Ki [1]: 564 ± 32.9 nM

Molecule: Nc1ccc(S(N)(=O)=O)cc1Br [Compound 9]
- Ki [1]: 3490 nM

Molecule: NS(=O)(=O)c1ccc(CCO)cc1 [Compound 17]
- Ki [1]: 419 ± 17.7 nM

Molecule: Nc1nccc(Nc2ccc(S(N)(=O)=O)cc2)n1 [Compound 19]
- Ki [1]: 1320 nM

Molecule: Nc1cc(Cl)c(S(N)(=O)=O)cc1S(N)(=O)=O [Compound 12]
- Ki [1]: 6090 nM

Molecule: Nc1ccc(S(=O)(=O)Nc2ccc(S(N)(=O)=O)cc2)cc1 [Compound 22]
- Ki [1]: 386 ± 19.3 nM

Molecule: NS(=O)(=O)NCCNc1nonc1/C(=N\c1ccc(F)c(Br)c1)NO [EPC]
- SI hCA I/PaCAγ1 [2]: 1.6
- SI hCA II/PaCAγ1 [2]: 0.2
- Ki [1]: 5320 nM
- Ki [3, 9]: 8260 nM
- Ki [4]: 917 nM

Molecule: Nc1ccc(S(N)(=O)=O)cc1Cl [Compound 8]
- Ki [1]: 697 ± 44.7 nM

Molecule: NS(=O)(=O)c1cc(Cl)c(Cl)c(S(N)(=O)=O)c1 [DCP]
- Ki [1]: 5680 nM

Molecule: CCN[C@H]1CN(CCCOC)S(=O)(=O)c2sc(S(N)(=O)=O)cc21 [BRZ]
- Ki [1]: 307 ± 13.1 nM

B1: PaCAγ1, γ-class carbonic anhydrase from Pseudomonas aeruginosa PAO1 (PA5540) (enzyme, UniProt Q9HT34 1-186, looked up)
chain: MIRKNPSGDLPVIDESAYVDKTAIICGKVIIQANVFVGPYAVIRADEVDADGGMQPIVIGANSNIQDGVVIHSKSGAAVTIGEHSSIAHRSIVHGPCEVGDRVFIGFNSVLFNCRVGDGCVVRHNAVVDGCDLPAGFYVPSTERIGPRTDLASMPRVSVSASEFSEDVARTNVDLVRGYKSLQNEF
notes: PaCAγ1, γ-class carbonic anhydrase encoded by PA5540 of P. aeruginosa PAO1; synthetic gene in pET21d; The initiator methionine is absent in the purified protein by LC-MS; source: E. coli BL21 (DE3), purified (His Trap HP, SEC Superdex 75); not shown: His6, C-terminal, kept
- stoichiometry N [8]: 3
